Measurements from US20240189240A1, “PHARMACEUTICAL COMPOSITIONS COMPRISING ZOLMITRIPTAN” (MapLight Therapeutics, Inc., priority 2021, published 2024).

Key:
[1] = CSF levels after i.p. dosing in c57/Bl6 mice; format: in vivo, mouse
[2] = CSF levels after i.p. dosing in CD-1 mice; settings: zolmitriptan 3 and 10 mg/kg i.p., male CD-1 mice
5-HT1b receptor = 5-HT1b receptor (Homo sapiens, UniProt P28222); test: 5-HT1b receptor occupancy and efficacy model, human dose estimate
Protocol: Specifically, 5-HT1b receptor occupancy and efficacy models measured potency of zolmitriptan and NMDZ at the 5-HT1b receptor and the ratio of zolmitriptan: NDMZ in human CSF. The 5-HT1b receptor efficacy model was used to predict the level of 5-HT1b activation (i.e., efficacy) by both zolmitriptan and NDMZ based on the concentration of zolmitriptan in the CSF. From this target zolmitriptan dose ranges required to achieve an effective CSF exposures in humans were calculated.
Using classical receptor theory, the receptor occupancy when considering two ligands (i.e., entities) can be predicted using the following relationship:
Total % occupancy=(% occupancy by A)+{[100%−(% occupancy by A)]×(% occupancy by B)} when considering a fixed concentration of both A and B.
Total % Efficacy={[Zolmitriptan]/([Zolmitriptan]+Ki,Z)}+(100−{[Zolmitriptan]/([Zolmitriptan]+Ki,Z)}×{[NDMZ]/([NDMZ]+Ki,N)}

CD-1 mice = test: Resident-Intruder (RI) assay of aggression; format: in vivo, mouse; settings: 10 mg/kg
Protocol: Correspondingly, the RI assay has been used preclinically to study the effect of drugs on rodent aggression (Miczek et al., 2001). The RI assay typically relies on the interpretation and scoring of offensive (resident animal) behavior patterns and may also include analysis of defensive (intruder animal) behavior patterns as well. […] Attack time was measured over a 5 min period as a cross over design.

[3] = target: T1, rat recombinant 5-HT1b (r5-HT1b) receptors (Rattus norvegicus, UniProt P28564); test: SPA-based 35S-GTPγS binding assay (functional); format: biochemical
T1 construct: expressed in transfected cells
T1 sequence (P28564 whole entry): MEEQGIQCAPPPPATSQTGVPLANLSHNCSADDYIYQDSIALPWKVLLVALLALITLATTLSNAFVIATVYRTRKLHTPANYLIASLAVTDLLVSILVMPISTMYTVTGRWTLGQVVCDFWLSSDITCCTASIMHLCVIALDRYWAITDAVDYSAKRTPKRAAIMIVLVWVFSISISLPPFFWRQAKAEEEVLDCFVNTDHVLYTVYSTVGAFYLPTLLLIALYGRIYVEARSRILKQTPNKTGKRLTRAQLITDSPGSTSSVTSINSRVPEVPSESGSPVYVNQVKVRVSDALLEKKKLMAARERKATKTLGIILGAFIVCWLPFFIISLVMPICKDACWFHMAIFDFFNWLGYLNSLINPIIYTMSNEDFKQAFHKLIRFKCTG
Protocol: In this study in vitro binding assays were conducted to measure the affinity of zolmitriptan and its active metabolite NDMZ to rat and human 5-HT1B receptors.
Zolmitriptan was tested in a SPA-based 35S-GTPγS binding assay in cells expressing human 5-HT1b (h5-HT1b) receptors or rat recombinant 5-HT1b (r5-HT1b) receptors at ten concentrations in duplicate.

Sequence of 5-HT1b receptor (P28222 whole entry): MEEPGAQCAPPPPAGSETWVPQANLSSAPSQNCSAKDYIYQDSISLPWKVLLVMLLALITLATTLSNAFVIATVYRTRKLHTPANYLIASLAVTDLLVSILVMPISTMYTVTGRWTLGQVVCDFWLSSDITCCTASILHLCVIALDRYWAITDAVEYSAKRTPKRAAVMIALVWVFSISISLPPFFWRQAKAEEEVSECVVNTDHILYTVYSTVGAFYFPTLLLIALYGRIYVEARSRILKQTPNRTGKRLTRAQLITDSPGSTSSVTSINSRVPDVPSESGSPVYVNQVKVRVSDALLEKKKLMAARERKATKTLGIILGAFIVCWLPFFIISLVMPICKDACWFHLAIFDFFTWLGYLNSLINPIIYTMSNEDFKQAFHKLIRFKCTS

CSF levels required for a therapeutic effect in humans, lower than in mice (5-HT1b receptor; based on human vs rat 5-HT1b EC50) | concentration for 50% Total Efficacy relative to the zolmitriptan EC50 (5-HT1b receptor; combined effect of the metabolite) [fold] | EC50 (5-HT1b receptor; read-out: concentration of zolmitriptan in human CSF predicted to induce 50% efficacy (EC50) of 5-HT1b by zolmitriptan and NDMZ, model, zolmitriptan: NDMZ 1.0:0.75) [nM] | CSF Cmax ([1]; 10 mg/Kg i.p., c57/Bl6 ASD mouse model) [nM] | activity in GTPgS at CSF Cmax (EC36) ([3]; CSF Cmax 18.8 nM, CD-1 mice, 3 mg/Kg i.p.) [%] | activity in GTPgS at CSF Cmax (EC65) ([3]; CSF Cmax 62 nM, c57/Bl6 mice, 10 mg/Kg i.p.) [%] | Compound | metabolite level in CSF after zolmitriptan dosing ([1]; zolmitriptan 10 mg/kg i.p., male c57/Bl6 mice) | metabolite level after zolmitriptan dosing [2] | reduction in attack time compared to risperidone (0.03 mg/kg) and vehicle control (CD-1 mice)
 |  |  |  |  |  | CNCCc1c[nH]c2ccc(C[C@H]3COC(=O)N3)cc12 [NDMZ, N-desmethyl zolmitriptan] | below the lower limit of quantification | below the lower limit of quantification | 
about 8.3 fold | 3.7 | 1.09 | 62 | 36 | 65 | CN(C)CCc1c[nH]c2ccc(C[C@H]3COC(=O)N3)cc12 [Zolmitriptan, (4S)-4-[[3-[2-(dimethylamino)ethyl]-1H-indol-5-yl]methyl]-1,3-oxazolidin-2-one] |  |  | greater reduction in attack time
